For test [1], the target named is T1, M2R (Homo sapiens, UniProt P08172).
T1 sequence (P08172 1-466): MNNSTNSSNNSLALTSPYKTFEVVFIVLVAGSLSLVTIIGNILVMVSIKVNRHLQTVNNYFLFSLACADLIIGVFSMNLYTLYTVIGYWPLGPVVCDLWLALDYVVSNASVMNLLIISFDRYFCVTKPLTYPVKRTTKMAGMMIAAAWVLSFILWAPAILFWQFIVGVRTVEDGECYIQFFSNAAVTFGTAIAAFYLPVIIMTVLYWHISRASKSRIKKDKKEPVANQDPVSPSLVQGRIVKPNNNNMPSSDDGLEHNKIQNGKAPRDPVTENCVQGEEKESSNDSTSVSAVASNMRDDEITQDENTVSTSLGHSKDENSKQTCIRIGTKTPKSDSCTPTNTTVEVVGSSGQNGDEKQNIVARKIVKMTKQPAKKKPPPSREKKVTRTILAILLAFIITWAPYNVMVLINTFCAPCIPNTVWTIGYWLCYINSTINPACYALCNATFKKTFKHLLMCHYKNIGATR
Put plainly: Whole cell radioligand binding, CHO cells, M2R. As to conditions: M2 vs M1.

The target of test [2] is T1, M2R. In words: β-Arrestin recruitment assay, HEK cells, M2-TEV-tTA. Format: cell-based. As to conditions: versus acetylcholine as reference, against the cAMP assay.
The target in another test is M3R (Homo sapiens, UniProt P20309). Put plainly: ERK1/2 phosphorylation. As to conditions: CHO, read-out: ERK1/2 phosphorylation Emax M3R.
Chain of M3R (P20309 whole entry): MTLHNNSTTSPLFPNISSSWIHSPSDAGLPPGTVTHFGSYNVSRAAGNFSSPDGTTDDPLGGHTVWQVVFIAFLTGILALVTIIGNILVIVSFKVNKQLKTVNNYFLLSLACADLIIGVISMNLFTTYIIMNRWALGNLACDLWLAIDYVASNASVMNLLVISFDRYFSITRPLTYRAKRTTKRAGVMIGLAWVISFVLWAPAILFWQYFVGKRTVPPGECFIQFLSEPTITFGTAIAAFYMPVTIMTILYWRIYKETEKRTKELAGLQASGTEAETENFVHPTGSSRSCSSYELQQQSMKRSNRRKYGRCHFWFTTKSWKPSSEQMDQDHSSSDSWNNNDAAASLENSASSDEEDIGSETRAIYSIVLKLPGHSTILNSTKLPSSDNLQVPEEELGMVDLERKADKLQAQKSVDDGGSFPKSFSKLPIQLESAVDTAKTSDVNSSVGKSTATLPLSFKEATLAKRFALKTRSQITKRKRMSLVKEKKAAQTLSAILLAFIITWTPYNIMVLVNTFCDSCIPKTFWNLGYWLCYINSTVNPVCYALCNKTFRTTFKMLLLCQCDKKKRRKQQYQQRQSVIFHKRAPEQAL
In another test the target is hM3 mAChR (Homo sapiens, UniProt P20309). In words: IP-One accumulation assay, CHO cells, M3R. Format: cell-based. As to conditions: read-out: IP accumulation Emax M3R.
Chain of hM3 mAChR (P20309 whole entry): as above

On to `C[N+](C)(C)CCc1ccc2c(c1)OCC2.O=C[O-]` [Compound 28], for which the “selectivity over M1 receptor” value at M2R [1] was 4 fold. The bias toward arrestin at M2R [2] came out at 20 fold.
Turning to `CC(=O)OCC[N+](C)(C)C` [acetylcholine], the Emax at M3R and at hM3 mAChR was 100% each time.

(Values after article PMC5836741 (Journal of medicinal chemistry, 2017).)
